According to patent US10294202B2, “Pyrrolidinones as herbicides” (FMC Corporation, priority 2013, dated 2019):

Assays:
barnyardgrass [1] = assay: Test A pre-/postemergence herbicide test; format: in vivo, Echinochloa crus-galli
Summary of the method: (§1)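 Visual injury ratings, 0 = no effect, 100 = complete control, taken ~10 days after treatment against untreated greenhouse controls. Preemergence: directed soil spray onto seeded loam/sand pots. Postemergence: spray onto plants at one- to two-leaf stage, 2–10 cm tall.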

kochia = assay: Test A pre-/postemergence herbicide test; format: in vivo, Kochia scoparia; settings: for Plant response rating, Kochia: 0 to 100 scale
Summary of the method: as §1

ragweed = assay: Test A pre-/postemergence herbicide test; format: in vivo, Ambrosia elatior; settings: for Plant response rating, Ragweed: 0 to 100 scale
Summary of the method: as §1

ryegrass, Italian = assay: Test A pre-/postemergence herbicide test; format: in vivo, Lolium multiflorum; settings: for Plant response rating, Ryegrass, Italian: 0 to 100 scale
Summary of the method: as §1

giant foxtail = assay: Test A pre-/postemergence herbicide test; format: in vivo, Setaria faberii
Summary of the method: as §1

pigweed = assay: Test A pre-/postemergence herbicide test; format: in vivo, Amaranthus retroflexus
Summary of the method: as §1

wheat = assay: Test A pre-/postemergence herbicide test; format: in vivo, Triticum aestivum
Summary of the method: as §1

corn = assay: Test A pre-/postemergence herbicide test; format: in vivo, Zea mays
Summary of the method: as §1

blackgrass = assay: Test A postemergence herbicide test; format: in vivo, Alopecurus myosuroides
Summary of the method: (§2)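 Young potted plants in a loam–sand mix, one- to two-leaf stage and 2–10 cm tall, receive the test chemical postemergence and stay in a greenhouse for approximately 10 days. Injury is then judged by eye against untreated plants, scored 0 (none) to 100 (complete control).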

galium = assay: Test A postemergence herbicide test; format: in vivo, Galium aparine
Summary of the method: as §2

rice = assay: Test C flooded paddy test; format: in vivo, Oryza sativa; settings: Flood
Summary of the method: (§3)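 Plants grown to the 2-leaf stage; pots flooded to 3 cm above soil and compound applied directly into the paddy water, depth kept throughout. Greenhouse 13 to 15 days, then visual rating vs untreated controls on 0–100 scale (0 no effect, 100 complete control); dash means no result.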

sedge, umbrella = assay: Test C flooded paddy test; format: in vivo, Cyperus difformis; settings: Flood
Summary of the method: as §3

ducksalad = assay: Test C flooded paddy test; format: in vivo, Heteranthera limosa; settings: Flood
Summary of the method: as §3

barnyardgrass [2] = assay: Test C flooded paddy test; format: in vivo, Echinochloa crus-galli; settings: Flood
Summary of the method: as §3

crabgrass, large = assay: Test A pre-/postemergence herbicide test; format: in vivo, Digitaria sanguinalis
Summary of the method: as §1

morningglory = assay: Test A pre-/postemergence herbicide test; format: in vivo, Ipomoea spp.
Summary of the method: as §1

velvetleaf = assay: Test A pre-/postemergence herbicide test; format: in vivo, Abutilon theophrasti
Summary of the method: as §1

[3] = Postemergence, 125 g ai/ha, 0 to 100 scale, 0 no effect, 100 complete control
[4] = Postemergence, 500 g ai/ha, 0 to 100 scale (0 no effect, 100 complete control)
[5] = Preemergence, 125 g ai/ha, visual rating on 0 to 100 scale (0 no effect, 100 complete control)
[6] = preemergence, 500 g ai/ha, 0 to 100 scale (0 no effect, 100 complete control)
[7] = Postemergence, 125 g ai/ha, 0 no effect, 100 complete control
[8] = preemergence, 500 g ai/ha, 0 to 100 scale
[9] = 125 g ai/ha, 0 to 100 scale, 0 no effect, 100 complete control
[10] = 125 g ai/ha, scale of 0 to 100 where 0 is no effect and 100 is complete control, 13 to 15 days
[11] = Postemergence, 1000 g ai/ha, 0 to 100 scale (0 no effect, 100 complete control)
[12] = Preemergence, 1000 g ai/ha, visual rating on 0 to 100 scale (0 no effect, 100 complete control), approx. 10 days
[13] = 31 g ai/ha, scale of 0 to 100 where 0 is no effect and 100 is complete control, 13 to 15 days
[14] = 62 g ai/ha, scale of 0 to 100 where 0 is no effect and 100 is complete control, 13 to 15 days

O=C1NCC(c2cccc(C(F)(F)F)c2)C1C(=O)Nc1nncs1 (racemic) [Compound 111]
Plant response rating, Barnyardgrass (barnyardgrass [1]; [3]): 0 | Plant response rating, Barnyardgrass (barnyardgrass [1]; [4]): 0 | Barnyardgrass plant response rating (barnyardgrass [1]; [5]): 0 | Plant response rating, Barnyardgrass (barnyardgrass [1]; [6]): 0 | Plant response rating, Kochia (kochia; [7]): 0 | Kochia plant response rating (0 to 100 scale, 0 is no effect, 100 is complete control) (kochia; Postemergence, 500 g ai/ha): 0 | Kochia plant response rating (kochia; [5]): 0 | Plant response rating, Kochia (kochia; preemergence, 500 g ai/ha): 0 | Plant response rating, Ragweed (ragweed; [7]): 0 | Ragweed plant response rating (0 to 100 scale, 0 is no effect, 100 is complete control) (ragweed; Postemergence, 500 g ai/ha): 0 | Ragweed plant response rating (ragweed; [5]): 0 | Plant response rating, Ragweed (ragweed; preemergence, 500 g ai/ha): 0 | Plant response rating, Ryegrass, Italian (ryegrass, Italian; [7]): 0 | Ryegrass, Italian plant response rating (0 to 100 scale, 0 is no effect, 100 is complete control) (ryegrass, Italian; Postemergence, 500 g ai/ha): 0 | Ryegrass, Italian plant response rating (ryegrass, Italian; [5]): 0 | Plant response rating, Ryegrass, Italian (ryegrass, Italian; preemergence, 500 g ai/ha): 0 | Plant response rating, Foxtail, Giant (giant foxtail; [3]): 0 | Foxtail, Giant plant response rating (0 to 100 scale, 0 is no effect, 100 is complete control) (giant foxtail; Postemergence, 500 g ai/ha): 0 | Foxtail, Giant plant response rating (giant foxtail; [5]): 0 | Plant response rating, Foxtail, Giant (giant foxtail; [8]): 0 | Plant response rating, Pigweed (pigweed; [3]): 0 | Pigweed plant response rating (0 to 100 scale, 0 is no effect, 100 is complete control) (pigweed; Postemergence, 500 g ai/ha): 0 | Pigweed plant response rating (pigweed; [5]): 0 | Plant response rating, Pigweed (pigweed; [8]): 0 | Plant response rating, Wheat (wheat; [3]): 0 | Wheat plant response rating (0 to 100 scale, 0 is no effect, 100 is complete control) (wheat; Postemergence, 500 g ai/ha): 0 | Plant response rating, Corn (corn; [3]): 0 | Plant response rating, Corn (corn; [4]): 0 | Plant response rating, Blackgrass (blackgrass; [9]): 0 | Plant response rating, Blackgrass (blackgrass; 500 g ai/ha, 0 to 100 scale (0 no effect, 100 complete control)): 0 | Plant response rating, Galium (galium; [9]): 0 | Galium plant response rating (0 to 100 scale, 0 is no effect, 100 is complete control) (galium; 500 g ai/ha): 0 | Plant response rating, Rice (rice; [10]): 0 | Plant response rating, Rice (rice; 250 g ai/ha, scale 0 to 100): 0 | Plant response rating, Rice (rice; 500 g ai/ha, scale 0 to 100): 0 | Plant response rating, Rice (rice; 1000 g ai/ha, scale 0 to 100): 0 | Plant response rating, Sedge, Umbrella (sedge, umbrella; [10]): 0 | Plant response rating, Sedge, Umbrella (sedge, umbrella; 250 g ai/ha, scale 0 to 100): 0 | Plant response rating, Sedge, Umbrella (sedge, umbrella; 500 g ai/ha, scale 0 to 100): 0 | Plant response rating, Sedge, Umbrella (sedge, umbrella; 1000 g ai/ha, scale 0 to 100): 0 | Plant response rating, Ducksalad (ducksalad; [10]): 0 | Plant response rating, Ducksalad (ducksalad; 250 g ai/ha, scale 0 to 100): 0 | Plant response rating, Ducksalad (ducksalad; 500 g ai/ha, scale 0 to 100): 30 | Plant response rating, Ducksalad (ducksalad; 1000 g ai/ha, scale 0 to 100): 40 | Plant response rating, Barnyardgrass (barnyardgrass [2]; [10]): 0 | Plant response rating, Barnyardgrass (barnyardgrass [2]; 250 g ai/ha, scale 0 to 100): 0 | Plant response rating, Barnyardgrass (barnyardgrass [2]; 500 g ai/ha, scale 0 to 100): 0 | Plant response rating, Barnyardgrass (barnyardgrass [2]; 1000 g ai/ha, scale 0 to 100): 0

O=C1NC[C@@H](c2ccc(F)c(F)c2)[C@@H]1C(=O)Nc1ccccc1F [Compound 102]
Plant response rating, Barnyardgrass (barnyardgrass [1]; [3]): 0 | Plant response rating, Barnyardgrass (barnyardgrass [1]; [4]): 0 | Barnyardgrass plant response rating (barnyardgrass [1]; [5]): 0 | Plant response rating, Barnyardgrass (barnyardgrass [1]; [6]): 0 | Plant response rating, Crabgrass, Large (crabgrass, large; [3]): 0 | Plant response rating, Crabgrass, Large (crabgrass, large; [4]): 0 | Crabgrass, Large plant response rating (crabgrass, large; [5]): 0 | Plant response rating, Crabgrass, Large (crabgrass, large; [8]): 0 | Plant response rating, Foxtail, Giant (giant foxtail; [3]): 0 | Plant response rating, Foxtail, Giant (giant foxtail; [4]): 0 | Foxtail, Giant plant response rating (giant foxtail; [5]): 0 | Plant response rating, Foxtail, Giant (giant foxtail; [8]): 0 | Plant response rating, Morningglory (morningglory; [3]): 0 | Plant response rating, Morningglory (morningglory; [4]): 0 | Morningglory plant response rating (morningglory; [5]): 0 | Plant response rating, Morningglory (morningglory; [8]): 0 | Plant response rating, Pigweed (pigweed; [3]): 0 | Plant response rating, Pigweed (pigweed; [4]): 0 | Pigweed plant response rating (pigweed; [5]): 0 | Plant response rating, Pigweed (pigweed; [8]): 0 | Plant response rating, Velvetleaf (velvetleaf; [3]): 0 | Plant response rating, Velvetleaf (velvetleaf; [4]): 0 | Velvetleaf plant response rating (velvetleaf; [5]): 0 | Plant response rating, Velvetleaf (velvetleaf; [8]): 0 | Plant response rating, Wheat (wheat; [3]): 0 | Plant response rating, Wheat (wheat; [4]): 0 | Wheat plant response rating (wheat; [5]): 0 | Plant response rating, Wheat (wheat; [8]): 0 | Plant response rating, Corn (corn; [3]): 0 | Plant response rating, Corn (corn; [4]): 0 | Corn plant response rating (corn; [5]): 0 | Plant response rating, Corn (corn; [8]): 0 | Plant response rating, Rice (rice; [10]): 0 | Plant response rating, Rice (rice; 250 g ai/ha, scale 0 to 100): 0 | Plant response rating, Rice (rice; 500 g ai/ha, scale 0 to 100): 0 | Plant response rating, Rice (rice; 1000 g ai/ha, scale 0 to 100): 0 | Plant response rating, Sedge, Umbrella (sedge, umbrella; [10]): 0 | Plant response rating, Sedge, Umbrella (sedge, umbrella; 250 g ai/ha, scale 0 to 100): 0 | Plant response rating, Sedge, Umbrella (sedge, umbrella; 500 g ai/ha, scale 0 to 100): 0 | Plant response rating, Sedge, Umbrella (sedge, umbrella; 1000 g ai/ha, scale 0 to 100): 0 | Plant response rating, Ducksalad (ducksalad; [10]): 0 | Plant response rating, Ducksalad (ducksalad; 250 g ai/ha, scale 0 to 100): 0 | Plant response rating, Ducksalad (ducksalad; 500 g ai/ha, scale 0 to 100): 0 | Plant response rating, Ducksalad (ducksalad; 1000 g ai/ha, scale 0 to 100): 0 | Plant response rating, Barnyardgrass (barnyardgrass [2]; [10]): 0 | Plant response rating, Barnyardgrass (barnyardgrass [2]; 250 g ai/ha, scale 0 to 100): 0 | Plant response rating, Barnyardgrass (barnyardgrass [2]; 500 g ai/ha, scale 0 to 100): 0 | Plant response rating, Barnyardgrass (barnyardgrass [2]; 1000 g ai/ha, scale 0 to 100): 0

O=C1NCC(c2ccc(F)c(F)c2)C1C(=O)Nc1ccccc1[N+](=O)[O-] (racemic) [Compound 20]
Plant response rating, Barnyardgrass (barnyardgrass [1]; [11]): 80 | Plant response rating, Barnyardgrass (barnyardgrass [1]; [12]): 90 | Plant response rating, Crabgrass, Large (crabgrass, large; [11]): 90 | Plant response rating, Crabgrass, Large (crabgrass, large; [12]): 90 | Plant response rating, Foxtail, Giant (giant foxtail; [11]): 80 | Plant response rating, Foxtail, Giant (giant foxtail; [12]): 90 | Plant response rating, Morningglory (morningglory; [11]): 0 | Plant response rating, Morningglory (morningglory; [12]): 0 | Plant response rating, Pigweed (pigweed; [11]): 0 | Plant response rating, Pigweed (pigweed; [12]): 0 | Plant response rating, Velvetleaf (velvetleaf; [11]): 0 | Plant response rating, Velvetleaf (velvetleaf; [12]): 30 | Plant response rating, Wheat (wheat; [11]): 20 | Plant response rating, Wheat (wheat; [12]): 0 | Plant response rating, Corn (corn; [11]): 0 | Plant response rating, Corn (corn; [12]): 0 | Plant response rating, Rice (rice; [13]): 0 | Plant response rating, Rice (rice; [14]): 0 | Plant response rating, Rice (rice; [10]): 0 | Plant response rating, Rice (rice; 250 g ai/ha, scale 0 to 100): 0 | Plant response rating, Sedge, Umbrella (sedge, umbrella; [13]): 0 | Plant response rating, Sedge, Umbrella (sedge, umbrella; [14]): 0 | Plant response rating, Sedge, Umbrella (sedge, umbrella; [10]): 0 | Plant response rating, Sedge, Umbrella (sedge, umbrella; 250 g ai/ha, scale 0 to 100): 0 | Plant response rating, Ducksalad (ducksalad; [13]): 0 | Plant response rating, Ducksalad (ducksalad; [14]): 0 | Plant response rating, Ducksalad (ducksalad; [10]): 0 | Plant response rating, Ducksalad (ducksalad; 250 g ai/ha, scale 0 to 100): 0 | Plant response rating, Barnyardgrass (barnyardgrass [2]; [13]): 0 | Plant response rating, Barnyardgrass (barnyardgrass [2]; [14]): 0 | Plant response rating, Barnyardgrass (barnyardgrass [2]; [10]): 0 | Plant response rating, Barnyardgrass (barnyardgrass [2]; 250 g ai/ha, scale 0 to 100): 0
